Activation data for 30 compounds are collected here from PubChem BioAssay AID602466 (Sanford-Burnham Center for Chemical Genomics, 2012).

Each structure is given as a SMILES string. The source made the active and inactive calls. The rule behind the calls is not given here.

The target in this experiment is Neurotensin receptor type 1 (Homo sapiens) (UniProt P30989). Put plainly: agonism at neurotensin receptor 1, calcium rise – cell-based, fluorescence, calcium flux, single concentration, SAR follow-up (AID 602466). The settings on record: NTR1-expressing cells, at 30 µM (top of the series). (In general: Calcium flux is commonly read through the fluorescence of an indicator in the cells.)
Neurotensin receptor type 1 (Homo sapiens), sequence (P30989 whole entry, looked up): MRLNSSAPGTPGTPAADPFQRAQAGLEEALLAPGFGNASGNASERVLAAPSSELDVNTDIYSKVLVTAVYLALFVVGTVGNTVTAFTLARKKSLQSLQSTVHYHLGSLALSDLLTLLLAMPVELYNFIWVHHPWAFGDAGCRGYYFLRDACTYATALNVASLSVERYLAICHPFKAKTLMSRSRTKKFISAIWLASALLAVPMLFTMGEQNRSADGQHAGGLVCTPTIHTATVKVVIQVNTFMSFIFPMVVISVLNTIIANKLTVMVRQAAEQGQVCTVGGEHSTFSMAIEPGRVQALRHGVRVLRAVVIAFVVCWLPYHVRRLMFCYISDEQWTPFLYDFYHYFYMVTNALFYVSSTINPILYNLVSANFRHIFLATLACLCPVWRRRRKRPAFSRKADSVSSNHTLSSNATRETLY
With `COc1cccc(OC)c1-c1nc(C(=O)N[C@@H](CC(C)C)C(=O)O)cn1-c1cccc2ccccc12`, the activation was 110%.
The same measure for `COc1cc2c3nnc(-c4ccc(F)cc4)c-3cn(Cc3ccccc3)c2cc1OC`: 110%.
The same measure for `COc1cc2c3nnc(-c4ccc(C)cc4)c-3cn(Cc3ccc(F)cc3)c2cc1OC`: 90.8%.
The same measure for `COc1ccc(-c2nc(C(=O)N[C@@H](CC(C)C)C(=O)O)cn2-c2ccnc3cc(Cl)ccc23)c(OC)c1`: 35.9% (inactive); for `COc1cc2nc(C)nc(N3CCN(c4ccccc4OC)CC3)c2cc1OC`: 17.5% (inactive).
As to `COc1ccc(-c2nnc3c4cc(OC)c(OC)cc4n(Cc4ccc(C)cc4)cc2-3)cc1`, the activation was 7.03% (inactive).
The same measure for `COc1cc2c3nnc(-c4ccc(F)cc4)c-3cn(Cc3ccc(F)cc3)c2cc1OC`: 95.3%; for `COc1cccc(OC)c1-c1nc(C(=O)NC2(C(=O)O)C3CC4CC(C3)CC2C4)cn1-c1ccnc2cc(Cl)ccc12` (stereo not given): 12.4% (inactive); for `COc1ccc2c(c1)c1nnc(-c3ccc(F)cc3)c-1cn2Cc1ccc(F)cc1`: 39.5% (inactive).
For the compound `COc1cc2nc(-c3ccccc3)nc(N3CCN(c4ccccc4OC)CC3)c2cc1OC`, the activation is 60.6%.
In the case of `COc1cc2c3nnc(-c4ccc(F)cc4)c-3cn(Cc3ccc(C)cc3)c2cc1OC`, the activation was 115%.
The same measure for `COc1cc2c3nnc(-c4ccc(Cl)cc4)c-3cn(Cc3ccc(F)cc3)c2cc1OC`: 187%; for `COc1cc2c3nnc(-c4ccc(C)c(C)c4)c-3cn(Cc3ccc(C)cc3)c2cc1OC`: 131%; for `COc1cc2nc(C3CCC3)nc(N3CCN(c4ccccc4C)CC3)c2cc1OC`: 9.85% (inactive).
The same measure for `COc1cccc(OC)c1-c1nc(C(=O)N[C@@H](CC(C)C)C(=O)O)cn1-c1ccnc2cc(Cl)ccc12`: 102%.
As for `COc1cc2c3nnc(-c4ccc(Cl)cc4)c-3cn(Cc3ccccc3)c2cc1OC`, the activation was 99.2%.
Turning to `COc1cc2c3nnc(-c4ccc(F)cc4)c-3cn(Cc3ccccc3N(C)C)c2cc1OC`, the activation is 37.2% (inactive).
Regarding `COc1ccc(Cn2cc3c(-c4ccc(F)cc4)nnc-3c3cc(OC)c(OC)cc32)cc1`, the activation was 56.6%.
The same measure for `Cc1cccc(C)c1-c1nc(C(=O)N[C@@H](CC(C)C)C(=O)O)cn1-c1ccnc2cc(Cl)ccc12`: 37.7%.
The same measure for `Cc1ccc(Cn2cc3c(-c4ccc(F)cc4)nnc-3c3cc4c(cc32)OCO4)cc1`: 13.4% (inactive).
For the compound `COc1cccc(OC)c1-c1cc(C(=O)N[C@@H](CC(C)C)C(=O)O)nn1-c1ccnc2cc(Cl)ccc12`, the activation is 48.7%.
The same measure for `COc1cc2c3nnc(-c4ccc(C)cc4)c-3cn(Cc3ccc(C)cc3)c2cc1OC`: 132%; for `COc1cc2c3nnc(-c4ccccc4)c-3cn(Cc3ccccc3)c2cc1OC`: 55%.
As to `COc1ccc2c(c1)c1nnc(-c3ccc(F)cc3)c-1cn2Cc1ccccc1`, the activation is 10.2% (inactive).
Regarding `COc1cc2c3nnc(-c4ccc(C)c(C)c4)c-3cn(Cc3ccc(F)cc3)c2cc1OC`, the activation was 38.2% (inactive).
The same measure for `COc1cc2c3nnc(-c4ccc(F)cc4)c-3cn(Cc3ccc(Cl)cc3)c2cc1OC`: 67.8%.
The same measure for `Cc1ccc(Cn2cc3c(-c4ccc(F)cc4)nnc-3c3ccccc32)cc1`: 9.46% (inactive); for `COc1cc2c3nnc(-c4ccc(F)cc4)c-3cn(Cc3ccc(OC(F)(F)F)cc3)c2cc1OC`: 2.56% (inactive); for `COc1ccccc1-c1cc(C(=O)N[C@@H](CC(C)C)C(=O)O)nn1-c1ccnc2cc(Cl)ccc12`: 11.9%.
The same measure for `COc1cc2c3nnc(-c4ccc(F)cc4)c-3cn(Cc3cccc(C)c3)c2cc1OC`: 191%.
